Columns and labels:
Format in all cases: biochemical
Conditions in all cases: recombinant human kinase, 1 μM ATP
VEGF-R2 = biological target: T1, VEGF-R2 (Homo sapiens, UniProt P35968); assay: 33PanQinase protein kinase activity assay, VEGF-R2
T1 construct: made in house; host or cells: Sf9 insect cells (baculovirus)
Experimental: (§1) The effect of the farazanopyrazine derivatives was tested on recombinant, human protein kinases. All protein kinases were expressed in Sf9 insect cells as human recombinant GST-fusion proteins or as His-tagged proteins by means of the baculovirus expression system. Protein kinases were purified by affinity chromatography using either GSH-agarose or Ni-NTH-agarose. The purity and identity of each was checked by SDS-PAGE/silver staining and by western blot analysis with specific antibodies.
(§2) A proprietary protein kinase assay (^33 PanQinase® Activity Assay) was used for measuring the kinase activity. All kinase assays were performed in 96-well FlashPlates™ in a 50 μl reaction volume. The assay for all enzymes contained 60 mM HEPES-NaOH, pH 7.5, 3 mM MgCl2, 3 mM MnCl2, 3 μM Na-orthovanadate, 1.2 mM DTT, 50 μg/ml PEG20000 and 1 μM [γ-^33P]-ATP (approx. 5×10^5 cpm per well).
(§3) The reaction cocktails were incubated at 30° C. for 80 minutes. The reaction was stopped with 50 μl of 2% (v/v) H3PO4, plates were aspirated and washed two times with 200 μl of 0.9% (w/v) NaCl. Incorporation of 33Pi was determined with a microplate scintillation counter. All assays were performed with a BeckmanCoulter/Sagian robotic system.

SRC kinase = biological target: T2, SRC kinase (Homo sapiens, UniProt P12931); assay: 33PanQinase protein kinase activity assay, SRC
T2 construct: made in house; host or cells: Sf9 insect cells (baculovirus)
T2 sequence (P12931 whole entry): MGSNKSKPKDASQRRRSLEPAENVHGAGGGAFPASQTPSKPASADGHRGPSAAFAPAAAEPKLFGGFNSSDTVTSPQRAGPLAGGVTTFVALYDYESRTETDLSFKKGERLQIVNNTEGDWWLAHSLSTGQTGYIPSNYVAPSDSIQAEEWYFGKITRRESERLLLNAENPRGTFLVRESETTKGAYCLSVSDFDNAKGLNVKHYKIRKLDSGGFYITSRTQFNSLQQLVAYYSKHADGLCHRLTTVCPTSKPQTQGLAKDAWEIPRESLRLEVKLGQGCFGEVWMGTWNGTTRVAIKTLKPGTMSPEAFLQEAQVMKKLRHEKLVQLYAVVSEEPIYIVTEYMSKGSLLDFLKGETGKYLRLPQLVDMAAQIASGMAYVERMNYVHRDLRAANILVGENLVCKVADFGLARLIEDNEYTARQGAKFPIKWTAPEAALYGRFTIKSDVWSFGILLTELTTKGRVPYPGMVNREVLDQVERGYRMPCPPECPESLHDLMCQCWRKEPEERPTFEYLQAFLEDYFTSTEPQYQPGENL
Experimental: as §1, §2, §3

IGF-1 R = biological target: T3, IGF-1 R (Homo sapiens, UniProt P08069); assay: 33PanQinase protein kinase activity assay, IGF-1 R
T3 construct: made in house; host or cells: Sf9 insect cells (baculovirus)
T3 sequence (P08069 31-1367): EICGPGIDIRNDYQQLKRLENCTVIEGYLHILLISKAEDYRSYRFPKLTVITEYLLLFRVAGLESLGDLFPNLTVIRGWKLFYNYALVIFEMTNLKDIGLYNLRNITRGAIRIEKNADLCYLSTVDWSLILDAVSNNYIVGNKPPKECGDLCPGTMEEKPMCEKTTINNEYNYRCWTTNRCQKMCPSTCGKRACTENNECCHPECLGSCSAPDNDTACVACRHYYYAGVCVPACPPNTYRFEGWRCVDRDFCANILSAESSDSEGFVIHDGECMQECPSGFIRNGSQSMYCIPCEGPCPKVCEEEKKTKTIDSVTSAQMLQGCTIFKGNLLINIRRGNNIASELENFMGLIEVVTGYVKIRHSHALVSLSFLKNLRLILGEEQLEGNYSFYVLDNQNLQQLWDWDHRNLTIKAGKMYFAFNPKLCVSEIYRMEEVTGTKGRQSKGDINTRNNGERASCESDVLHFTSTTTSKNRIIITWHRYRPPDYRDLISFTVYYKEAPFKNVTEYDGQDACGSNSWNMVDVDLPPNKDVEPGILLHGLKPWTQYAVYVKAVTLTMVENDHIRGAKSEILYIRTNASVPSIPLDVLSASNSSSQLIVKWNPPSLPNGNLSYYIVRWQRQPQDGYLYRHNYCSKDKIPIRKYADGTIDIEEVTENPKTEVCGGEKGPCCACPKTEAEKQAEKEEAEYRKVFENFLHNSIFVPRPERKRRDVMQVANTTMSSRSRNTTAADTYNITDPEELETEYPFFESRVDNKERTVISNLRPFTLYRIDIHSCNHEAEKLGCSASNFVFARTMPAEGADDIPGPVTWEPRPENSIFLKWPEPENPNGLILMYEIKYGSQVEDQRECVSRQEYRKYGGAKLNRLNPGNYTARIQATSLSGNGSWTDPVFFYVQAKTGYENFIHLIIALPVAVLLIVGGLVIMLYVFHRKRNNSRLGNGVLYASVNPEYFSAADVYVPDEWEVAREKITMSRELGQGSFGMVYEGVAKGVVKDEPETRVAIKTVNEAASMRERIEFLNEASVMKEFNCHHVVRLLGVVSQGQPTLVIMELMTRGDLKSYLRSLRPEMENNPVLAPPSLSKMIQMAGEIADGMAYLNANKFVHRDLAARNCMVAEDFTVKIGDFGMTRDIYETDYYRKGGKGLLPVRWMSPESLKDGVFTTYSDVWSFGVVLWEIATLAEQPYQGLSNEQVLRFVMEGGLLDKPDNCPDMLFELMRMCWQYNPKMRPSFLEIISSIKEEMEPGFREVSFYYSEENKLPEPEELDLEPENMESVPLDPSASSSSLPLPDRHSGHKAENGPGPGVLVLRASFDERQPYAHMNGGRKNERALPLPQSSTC
Experimental: as §1, §2, §3

Aurora B kinase = biological target: T4, Aurora B kinase (Homo sapiens, UniProt Q96GD4); assay: 33PanQinase protein kinase activity assay, Aurora B
T4 construct: made in house; host or cells: Sf9 insect cells (baculovirus)
T4 sequence (Q96GD4 whole entry): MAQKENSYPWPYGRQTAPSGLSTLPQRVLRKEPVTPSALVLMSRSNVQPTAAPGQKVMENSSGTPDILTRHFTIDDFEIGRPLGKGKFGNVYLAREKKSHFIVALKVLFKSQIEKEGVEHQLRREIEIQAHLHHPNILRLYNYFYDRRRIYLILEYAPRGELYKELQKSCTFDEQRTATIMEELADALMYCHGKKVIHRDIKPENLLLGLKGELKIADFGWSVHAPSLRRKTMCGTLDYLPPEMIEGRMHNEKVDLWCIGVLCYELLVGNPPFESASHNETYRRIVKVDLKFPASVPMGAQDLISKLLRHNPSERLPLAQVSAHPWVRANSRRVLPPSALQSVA
Experimental: as §1, §2, §3

T1 sequence (P35968 20-1356): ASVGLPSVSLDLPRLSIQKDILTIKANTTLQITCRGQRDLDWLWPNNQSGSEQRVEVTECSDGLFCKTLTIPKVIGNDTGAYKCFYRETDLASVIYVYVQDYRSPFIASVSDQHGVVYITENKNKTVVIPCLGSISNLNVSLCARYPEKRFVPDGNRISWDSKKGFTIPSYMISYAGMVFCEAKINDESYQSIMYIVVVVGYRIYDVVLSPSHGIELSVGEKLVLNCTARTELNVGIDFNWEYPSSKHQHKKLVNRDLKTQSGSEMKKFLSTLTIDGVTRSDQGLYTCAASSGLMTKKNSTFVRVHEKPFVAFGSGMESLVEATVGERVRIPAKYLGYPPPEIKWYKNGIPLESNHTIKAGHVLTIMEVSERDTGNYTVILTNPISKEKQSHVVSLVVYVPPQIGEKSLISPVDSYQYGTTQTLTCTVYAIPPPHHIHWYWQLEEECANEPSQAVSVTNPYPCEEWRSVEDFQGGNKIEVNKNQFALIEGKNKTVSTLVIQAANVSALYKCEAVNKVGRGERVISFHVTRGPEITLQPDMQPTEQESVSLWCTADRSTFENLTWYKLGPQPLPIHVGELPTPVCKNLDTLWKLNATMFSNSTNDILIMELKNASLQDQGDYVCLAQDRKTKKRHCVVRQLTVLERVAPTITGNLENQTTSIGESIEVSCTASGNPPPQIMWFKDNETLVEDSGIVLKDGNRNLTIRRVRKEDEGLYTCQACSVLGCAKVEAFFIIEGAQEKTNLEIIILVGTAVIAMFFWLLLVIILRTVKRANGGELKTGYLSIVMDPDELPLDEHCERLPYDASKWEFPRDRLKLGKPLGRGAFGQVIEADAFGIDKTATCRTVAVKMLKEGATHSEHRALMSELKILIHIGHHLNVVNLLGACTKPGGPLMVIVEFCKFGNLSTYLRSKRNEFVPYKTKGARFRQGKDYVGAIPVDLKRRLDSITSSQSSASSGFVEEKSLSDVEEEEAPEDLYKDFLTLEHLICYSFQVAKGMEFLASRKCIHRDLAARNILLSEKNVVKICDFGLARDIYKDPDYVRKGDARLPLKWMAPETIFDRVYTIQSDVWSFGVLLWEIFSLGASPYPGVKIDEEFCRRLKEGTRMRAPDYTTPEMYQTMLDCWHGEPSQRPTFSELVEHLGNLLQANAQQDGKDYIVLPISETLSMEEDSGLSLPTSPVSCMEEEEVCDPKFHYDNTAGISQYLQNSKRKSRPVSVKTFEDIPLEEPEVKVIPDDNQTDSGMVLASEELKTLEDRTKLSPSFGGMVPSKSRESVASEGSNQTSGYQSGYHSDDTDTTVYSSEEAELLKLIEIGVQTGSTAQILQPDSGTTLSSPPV

SMILES | IC50 (VEGF-R2) [nM] | IC50 (SRC kinase) [nM] | IC50 (IGF-1 R) [nM] | IC50 (Aurora B kinase) [nM]
Cc1cccc(Nc2nc3nonc3nc2NN=Cc2ccc(-c3ccc(Cl)c(C(=O)O)c3)o2)c1C [Example 2] | < 2000 | < 1000 | < 1000 | –
COc1cc(C=NNc2nc3nonc3nc2Nc2ccccc2F)cc([N+](=O)[O-])c1O [Example 7] | < 2000 | < 1000 | – | < 10000
Oc1c(Br)cc(Cl)cc1C=NNc1nc2nonc2nc1Nc1ccc(Cl)c(Cl)c1 [Example 14] | < 2000 | < 1000 | < 1000 | –
Fc1ccc(Nc2nc3nonc3nc2NN=Cc2ccc(-c3ccc(Cl)cc3Cl)o2)cc1 [Example 15, (6-{N′-[5-(2,4-Dichloro-phenyl)-furan-2-ylmethylene]-hydrazino}-[1,2,5]oxadiazolo [3,4-b]pyrazin-5-yl)-(4-fluoro-phenyl)-amine] | < 2000 | < 1000 | – | –
O=C(O)c1cc(-c2ccc(C=NNc3nc4nonc4nc3Nc3ccccc3F)o2)ccc1O [Example 23] | < 2000 | < 1000 | < 1000 | < 10000
Oc1c(I)cc(I)cc1C=NNc1nc2nonc2nc1Nc1cccc(Br)c1 [Example 35] | < 2000 | < 1000 | < 1000 | –
COc1ccccc1Nc1nc2nonc2nc1NN=Cc1cc(I)cc(I)c1O [Example 47] | – | – | – | < 10000
O=C(O)c1cc(-c2ccc(C=NNc3nc4nonc4nc3Nc3ccc(Br)cc3)o2)ccc1Cl [Example 52] | < 2000 | < 1000 | < 1000 | < 10000
Oc1ccc(C=NNc2nc3nonc3nc2Nc2ccccc2)c(O)c1 [Example 81] | – | – | – | < 10000
O=C(O)c1cccc(-c2ccc(C=NNc3nc4nonc4nc3Nc3ccccc3)o2)c1 [Example 89] | – | – | – | < 10000
O=C1Nc2ccccc2C1=NNc1nc2nonc2nc1Nc1ccccc1 [Example 95, 3-[(6-Phenylamino-[1,2,5]oxadiazolo [3,4-b]pyrazin-5-yl)-hydrazono]-1,3-dihydro-indol-2-one] | – | – | < 1000 | < 10000
O=C(O)c1cccc(-c2ccc(C=NNc3nc4nonc4nc3NCc3ccccc3)o2)c1 [Example 111] | – | – | – | < 10000
O=C(O)c1ccc(-c2ccc(C=NNc3nc4nonc4nc3NCc3ccccc3)o2)cc1 [Example 117] | – | – | – | < 10000
Oc1ccc(C=NNc2nc3nonc3nc2Nc2ccc(F)cc2)c(O)c1 [Example 126] | – | – | – | < 10000
Oc1ccc(C=NNc2nc3nonc3nc2Nc2cccc(Cl)c2)c(O)c1 [Example 147] | – | – | – | < 10000
COc1cc(Br)cc(C=NNc2nc3nonc3nc2Nc2cccc(Cl)c2)c1O [Example 152] | < 2000 | < 1000 | < 1000 | –
O=C(O)c1cccc(-c2ccc(C=NNc3nc4nonc4nc3Nc3cccc(Cl)c3)o2)c1 [Example 154] | < 2000 | < 1000 | < 1000 | < 10000
O=[N+]([O-])c1cccc(-c2ccc(C=NNc3nc4nonc4nc3Nc3cccc(Cl)c3)o2)c1 [Example 155, (3-Chloro-phenyl)-(6-{N′-[5-(3-nitro-phenyl)-furan-2-ylmethylene]-hydrazino}-[1,2,5]oxadiazolo[3,4-b]pyrazin-5-yl)-amine] | < 2000 | < 1000 | < 1000 | –
Oc1ccc(C=NNc2nc3nonc3nc2Nc2ccc(F)c(Cl)c2)c(O)c1 [Example 165] | < 2000 | – | – | < 10000
Fc1ccc(Nc2nc3nonc3nc2NN=Cc2cc3ccccc3o2)cc1Cl [Example 172, [6-(N′-Benzofuran-2-ylmethylene-hydrazino)-[1,2,5]oxadiazolo[3,4-b]pyrazin-5-yl]-(3-chloro-4-fluoro-phenyl)-amine] | < 2000 | < 1000 | < 1000 | –

SMILES | IC50 (VEGF-R2) [nM] | IC50 (SRC kinase) [nM] | IC50 (IGF-1 R) [nM] | IC50 (Aurora B kinase) [nM]
O=C(O)c1cccc(-c2ccc(C=NNc3nc4nonc4nc3Nc3ccc(F)c(Cl)c3)o2)c1 [Example 173] | – | < 1000 | < 1000 | < 10000
O=[N+]([O-])c1cccc(-c2ccc(C=NNc3nc4nonc4nc3Nc3ccc(F)c(Cl)c3)o2)c1 [Example 174, (3-Chloro-4-fluoro-phenyl)-(6-{N′-[5-(3-nitro-phenyl)-furan-2-ylmethylene]-hydrazino}-[1,2,5]oxadiazolo[3,4-b]pyrazin-5-yl)-amine] | < 2000 | < 1000 | < 1000 | –
Fc1ccc(Nc2nc3nonc3nc2NN=Cc2ccc(-c3ccccc3)o2)cc1Cl [Example 175, (3-Chloro-4-fluoro-phenyl)-{6-[N′-(5-phenyl-furan-2-ylmethylene)-hydrazino]-[1,2,5]oxadiazolo [3,4-b]pyrazin-5-yl}-amine] | – | < 1000 | < 1000 | –
O=C(O)c1cc(-c2ccc(C=NNc3nc4nonc4nc3Nc3ccc(F)c(Cl)c3)o2)ccc1Cl [Example 176] | < 2000 | < 1000 | < 1000 | < 10000
NC(=O)c1cccc(-c2ccc(C=NNc3nc4nonc4nc3Nc3ccc(F)c(Cl)c3)o2)c1 [Example 178] | < 2000 | < 1000 | < 1000 | –
O=C(O)c1ccc(-c2ccc(C=NNc3nc4nonc4nc3Nc3ccc(F)c(Cl)c3)o2)cc1 [Example 179] | < 2000 | < 1000 | < 1000 | –
Fc1ccc(Nc2nc3nonc3nc2NN=Cc2ccc(-c3ccc(Cl)cc3)o2)cc1Cl [Example 180, (3-Chloro-4-fluoro-phenyl)-(6-{N′-[5-(4-chloro-phenyl)-furan-2-yl-methylene]-hydrazino}-[1,2,5]oxadiazolo [3,4-b]pyrazin-5-yl)-amine] | < 2000 | < 1000 | < 1000 | –
O=S(=O)(O)c1ccc(C=NNc2nc3nonc3nc2Nc2ccc(F)c(Cl)c2)o1 [Example 181] | – | – | – | < 10000
O=C1Nc2ccccc2C1=NNc1nc2nonc2nc1Nc1ccc(F)c(Cl)c1 [Example 182, 3-{1[6-(3-Chloro-4-fluoro-phenylamino)-[1,2,5]oxadiazolo[3,4-b]pyrazin-5-yl]-hydrazono}-1,3-dihydro-indol-2-one] | < 2000 | < 1000 | < 1000 | –
O=C(O)c1cccc(C=NNc2nc3nonc3nc2Nc2ccc(Cl)c(Cl)c2)c1 [Example 186] | < 2000 | < 1000 | < 1000 | –
Oc1ccc(C=NNc2nc3nonc3nc2Nc2ccc(Cl)c(Cl)c2)c(O)c1 [Example 189] | – | – | – | < 10000
COc1ccc(O)c(C=NNc2nc3nonc3nc2Nc2ccc(Cl)c(Cl)c2)c1 [Example 191] | < 2000 | < 1000 | < 1000 | –
Clc1ccc(Nc2nc3nonc3nc2NN=Cc2cc3ccccc3o2)cc1Cl [Example 193, [6-(N′-Benzofuran-2-ylmethylene-hydrazino)-[1,2,5]oxadiazolo[3,4-b]pyrazin-5-yl]-(3,4-dichloro-phenyl)-amine] | < 2000 | < 1000 | < 1000 | –
O=C(O)c1cccc(-c2ccc(C=NNc3nc4nonc4nc3Nc3ccc(Cl)c(Cl)c3)o2)c1 [Example 194] | < 2000 | < 1000 | < 1000 | < 10000
O=C(O)c1cc(-c2ccc(C=NNc3nc4nonc4nc3Nc3ccc(Cl)c(Cl)c3)o2)ccc1Cl [Example 196] | < 2000 | < 1000 | < 1000 | < 10000
Clc1ccc(Nc2nc3nonc3nc2NN=Cc2ccco2)cc1Cl [Example 197, (3,4-Dichloro-phenyl)-[6-(N′-furan-2-ylmethylene-hydrazino)-[1,2,5]-oxadiazolo[3,4-b]pyrazin-5-yl]-amine] | – | < 1000 | < 1000 | –
NC(=O)c1cccc(-c2ccc(C=NNc3nc4nonc4nc3Nc3ccc(Cl)c(Cl)c3)o2)c1 [Example 198] | < 2000 | < 1000 | < 1000 | –
O=C(O)c1ccc(-c2ccc(C=NNc3nc4nonc4nc3Nc3ccc(Cl)c(Cl)c3)o2)cc1 [Example 199] | < 2000 | < 1000 | < 1000 | < 10000
Clc1ccc(-c2ccc(C=NNc3nc4nonc4nc3Nc3ccc(Cl)c(Cl)c3)o2)cc1 [Example 200, (6-{N-[5-(4-Chloro-phenyl)-furan-2-ylmethylene]-hydrazino}-[1,2,5]-oxadiazolo[3,4-b]pyrazin-5-yl)-(3,4-dichloro-phenyl)-amine] | < 2000 | < 1000 | < 1000 | –
O=C1Nc2ccccc2C1=NNc1nc2nonc2nc1Nc1ccc(Cl)c(Cl)c1 [Example 201, 3-{[6-(3,4-Dichloro-phenylamino)-[1,2,5]oxadiazolo [3,4-b]pyrazin-5-yl]-hydrazono}-1,3-dihydro-indol-2-one] | < 2000 | < 1000 | < 1000 | –

From US20050143382A1 (4SC AG, priority 2003, published 2005)
